# According to paper doi:10.1101/2020.06.11.145995v1 (biorxiv, 2020):
# Where two headings read alike, the source gives them in different places.
# Legend:
# Assay in all cases: biochemical
# RET(V804M) = RET(V804M) (Homo sapiens, UniProt P07949, V804M)
# RSK1 = RSK1 (Homo sapiens, UniProt Q15418)
# PRKX = PRKX (Homo sapiens, UniProt P51817)
# RPS6KA4 = RPS6KA4 (Homo sapiens, UniProt O75676)
# RET(V804L) = RET(V804L) (Homo sapiens, UniProt P07949, V804L)
# PDGFRB = PDGFRB (Homo sapiens, UniProt P09619)
# YSK1 = YSK1 (Homo sapiens, UniProt O00506)
# PIK3CA(H1047Y) = target: PIK3CA(H1047Y (Homo sapiens, UniProt P42336, H1047Y))
# NEK11 = NEK11 (Homo sapiens, UniProt Q8NG66)
# YANK2 = YANK2 (Homo sapiens, UniProt Q9NY57)
# NEK2 = NEK2 (Homo sapiens, UniProt P51955)
# RIOK3 = RIOK3 (Homo sapiens, UniProt O14730)
# TRPM6 = TRPM6 (Homo sapiens, UniProt Q9BX84)
# TNK1 = TNK1 (Homo sapiens, UniProt Q13470)
# ROCK2 = ROCK2 (Homo sapiens, UniProt O75116)
# PIK3CA(E545K) = PIK3CA(E545K) (Homo sapiens, UniProt P42336, E545K)
# STK39 = STK39 (Homo sapiens, UniProt Q9UEW8)
# RAF1 = RAF1 (Homo sapiens, UniProt P04049)
# TAOK1 = TAOK1 (Homo sapiens, UniProt Q7L7X3)
# TIE2 = TIE2 (Homo sapiens, UniProt Q02763)
# NEK5 = NEK5 (Homo sapiens, UniProt Q6P3R8)
# STK36 = STK36 (Homo sapiens, UniProt Q9NRP7)
# PIK3CA(E542K) = PIK3CA(E542K) (Homo sapiens, UniProt P42336, E542K)
# PCTK3 = PCTK3 (Homo sapiens, UniProt Q07002)
# TAOK3 = TAOK3 (Homo sapiens, UniProt Q9H2K8)
# TNK2 = TNK2 (Homo sapiens, UniProt Q07912)
# PRKD3 = PRKD3 (Homo sapiens, UniProt O94806)
# TIE1 = TIE1 (Homo sapiens, UniProt P35590)
# TEC = TEC (Homo sapiens, UniProt P42680)
# [1] = read-out: CPT-1-70-1 (1μM) % control
# [2] = read-out: CPT-1-70-1 (1μM) % control, Kin.Dom.1-N-terminal
# [3] = read-out: CPT-1-70-1 (1μM) % control, Kin.Dom.2-C-terminal
# [4] = read-out: HYJ-2-002-1 (1μM) % control
# [5] = read-out: HYJ-2-002-1 (1μM) % control, Kin.Dom.1-N-terminal
# [6] = read-out: HYJ-2-002-1 (1μM) % control, Kin.Dom.2-C-terminal
# Chain of RPS6KA4 (O75676 whole entry): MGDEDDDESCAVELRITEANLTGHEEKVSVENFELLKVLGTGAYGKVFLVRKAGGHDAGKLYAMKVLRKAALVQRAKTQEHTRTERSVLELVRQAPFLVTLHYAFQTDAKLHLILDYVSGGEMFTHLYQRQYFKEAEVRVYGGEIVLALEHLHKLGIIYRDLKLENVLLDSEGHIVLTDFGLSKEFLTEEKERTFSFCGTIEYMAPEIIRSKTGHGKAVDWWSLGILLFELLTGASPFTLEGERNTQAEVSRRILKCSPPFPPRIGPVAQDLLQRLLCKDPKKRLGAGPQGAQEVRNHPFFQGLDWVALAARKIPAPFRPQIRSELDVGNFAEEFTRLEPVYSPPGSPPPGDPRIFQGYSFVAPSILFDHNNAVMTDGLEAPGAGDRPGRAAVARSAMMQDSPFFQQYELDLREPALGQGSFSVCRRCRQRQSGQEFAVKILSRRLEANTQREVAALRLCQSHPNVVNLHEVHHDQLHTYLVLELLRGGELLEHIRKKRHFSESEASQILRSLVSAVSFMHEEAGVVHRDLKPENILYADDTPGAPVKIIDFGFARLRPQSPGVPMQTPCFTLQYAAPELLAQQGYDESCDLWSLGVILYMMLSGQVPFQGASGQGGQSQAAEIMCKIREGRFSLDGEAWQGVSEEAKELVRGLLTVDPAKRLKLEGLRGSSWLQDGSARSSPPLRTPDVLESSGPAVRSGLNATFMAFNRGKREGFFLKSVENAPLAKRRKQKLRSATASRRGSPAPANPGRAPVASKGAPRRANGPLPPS
# Chain of RSK1 (Q15418 whole entry): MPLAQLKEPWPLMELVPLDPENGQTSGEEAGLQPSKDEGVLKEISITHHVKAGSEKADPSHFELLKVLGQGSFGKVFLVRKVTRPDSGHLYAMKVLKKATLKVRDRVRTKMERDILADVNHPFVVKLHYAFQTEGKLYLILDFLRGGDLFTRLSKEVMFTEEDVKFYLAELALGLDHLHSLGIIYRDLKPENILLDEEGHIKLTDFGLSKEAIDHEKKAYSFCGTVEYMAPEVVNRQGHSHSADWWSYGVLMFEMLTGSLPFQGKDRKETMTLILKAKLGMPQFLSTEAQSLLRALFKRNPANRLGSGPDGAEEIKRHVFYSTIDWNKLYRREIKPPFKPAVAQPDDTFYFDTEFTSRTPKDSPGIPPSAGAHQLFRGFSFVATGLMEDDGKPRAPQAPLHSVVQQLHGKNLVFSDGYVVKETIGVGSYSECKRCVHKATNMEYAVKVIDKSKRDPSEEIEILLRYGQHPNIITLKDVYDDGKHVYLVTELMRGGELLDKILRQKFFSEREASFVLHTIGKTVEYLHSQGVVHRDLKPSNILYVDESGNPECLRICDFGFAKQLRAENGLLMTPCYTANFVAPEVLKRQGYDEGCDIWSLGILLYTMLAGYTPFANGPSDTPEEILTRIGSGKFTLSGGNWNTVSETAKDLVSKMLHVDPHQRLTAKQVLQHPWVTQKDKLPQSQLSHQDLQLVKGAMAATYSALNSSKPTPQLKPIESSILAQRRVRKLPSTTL
# Chain of TRPM6 (Q9BX84 whole entry): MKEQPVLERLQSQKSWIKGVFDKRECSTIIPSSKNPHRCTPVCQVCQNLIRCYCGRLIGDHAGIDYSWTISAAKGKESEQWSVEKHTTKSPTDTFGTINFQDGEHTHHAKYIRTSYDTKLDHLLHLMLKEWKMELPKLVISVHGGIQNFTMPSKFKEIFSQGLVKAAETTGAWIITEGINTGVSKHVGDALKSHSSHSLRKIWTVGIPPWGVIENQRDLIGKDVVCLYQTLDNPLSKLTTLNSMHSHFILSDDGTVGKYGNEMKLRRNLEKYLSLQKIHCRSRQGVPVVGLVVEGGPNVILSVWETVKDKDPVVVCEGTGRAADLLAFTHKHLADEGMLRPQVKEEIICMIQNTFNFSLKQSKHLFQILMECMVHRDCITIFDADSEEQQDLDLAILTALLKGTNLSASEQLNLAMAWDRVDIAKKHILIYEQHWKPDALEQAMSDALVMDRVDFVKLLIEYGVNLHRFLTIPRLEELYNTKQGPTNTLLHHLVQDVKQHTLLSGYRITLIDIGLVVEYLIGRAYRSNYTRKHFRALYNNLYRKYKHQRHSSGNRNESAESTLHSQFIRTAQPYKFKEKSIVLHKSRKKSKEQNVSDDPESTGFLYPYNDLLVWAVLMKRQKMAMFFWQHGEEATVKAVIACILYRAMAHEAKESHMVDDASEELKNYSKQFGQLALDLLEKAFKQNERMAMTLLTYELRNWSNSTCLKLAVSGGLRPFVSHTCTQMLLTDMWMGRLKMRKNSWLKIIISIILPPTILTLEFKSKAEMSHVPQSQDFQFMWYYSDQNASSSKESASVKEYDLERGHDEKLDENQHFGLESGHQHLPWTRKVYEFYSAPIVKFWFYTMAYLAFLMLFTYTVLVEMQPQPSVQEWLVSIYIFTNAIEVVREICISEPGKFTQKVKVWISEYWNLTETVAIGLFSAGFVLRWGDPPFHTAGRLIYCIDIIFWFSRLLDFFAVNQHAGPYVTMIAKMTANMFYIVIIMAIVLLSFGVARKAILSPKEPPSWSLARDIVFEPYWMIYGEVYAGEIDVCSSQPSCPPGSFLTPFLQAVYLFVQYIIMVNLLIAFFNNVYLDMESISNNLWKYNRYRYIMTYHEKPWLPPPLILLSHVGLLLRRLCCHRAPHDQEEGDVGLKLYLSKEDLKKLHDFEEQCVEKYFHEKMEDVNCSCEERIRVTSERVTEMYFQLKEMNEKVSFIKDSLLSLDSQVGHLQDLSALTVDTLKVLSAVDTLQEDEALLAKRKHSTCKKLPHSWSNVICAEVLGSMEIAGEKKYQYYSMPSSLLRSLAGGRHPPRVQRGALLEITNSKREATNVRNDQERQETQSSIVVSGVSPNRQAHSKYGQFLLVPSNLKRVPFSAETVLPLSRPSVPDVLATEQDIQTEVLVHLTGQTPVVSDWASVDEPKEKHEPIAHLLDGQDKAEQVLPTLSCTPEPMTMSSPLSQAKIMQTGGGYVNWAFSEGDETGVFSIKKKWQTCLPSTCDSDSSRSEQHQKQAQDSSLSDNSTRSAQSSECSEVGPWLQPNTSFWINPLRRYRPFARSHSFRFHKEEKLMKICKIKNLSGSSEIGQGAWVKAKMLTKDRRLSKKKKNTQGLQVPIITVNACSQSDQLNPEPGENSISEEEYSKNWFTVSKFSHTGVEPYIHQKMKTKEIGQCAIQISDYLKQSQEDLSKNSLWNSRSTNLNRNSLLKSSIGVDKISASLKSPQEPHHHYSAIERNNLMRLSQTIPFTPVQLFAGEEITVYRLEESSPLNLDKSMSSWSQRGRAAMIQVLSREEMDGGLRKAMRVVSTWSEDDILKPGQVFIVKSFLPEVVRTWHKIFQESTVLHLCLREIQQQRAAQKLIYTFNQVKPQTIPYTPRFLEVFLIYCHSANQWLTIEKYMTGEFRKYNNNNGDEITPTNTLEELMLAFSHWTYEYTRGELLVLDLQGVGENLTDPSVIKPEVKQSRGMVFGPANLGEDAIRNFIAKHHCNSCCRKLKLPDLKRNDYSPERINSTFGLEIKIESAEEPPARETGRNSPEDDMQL
# Chain of RET(V804M) (P07949 whole entry V804M): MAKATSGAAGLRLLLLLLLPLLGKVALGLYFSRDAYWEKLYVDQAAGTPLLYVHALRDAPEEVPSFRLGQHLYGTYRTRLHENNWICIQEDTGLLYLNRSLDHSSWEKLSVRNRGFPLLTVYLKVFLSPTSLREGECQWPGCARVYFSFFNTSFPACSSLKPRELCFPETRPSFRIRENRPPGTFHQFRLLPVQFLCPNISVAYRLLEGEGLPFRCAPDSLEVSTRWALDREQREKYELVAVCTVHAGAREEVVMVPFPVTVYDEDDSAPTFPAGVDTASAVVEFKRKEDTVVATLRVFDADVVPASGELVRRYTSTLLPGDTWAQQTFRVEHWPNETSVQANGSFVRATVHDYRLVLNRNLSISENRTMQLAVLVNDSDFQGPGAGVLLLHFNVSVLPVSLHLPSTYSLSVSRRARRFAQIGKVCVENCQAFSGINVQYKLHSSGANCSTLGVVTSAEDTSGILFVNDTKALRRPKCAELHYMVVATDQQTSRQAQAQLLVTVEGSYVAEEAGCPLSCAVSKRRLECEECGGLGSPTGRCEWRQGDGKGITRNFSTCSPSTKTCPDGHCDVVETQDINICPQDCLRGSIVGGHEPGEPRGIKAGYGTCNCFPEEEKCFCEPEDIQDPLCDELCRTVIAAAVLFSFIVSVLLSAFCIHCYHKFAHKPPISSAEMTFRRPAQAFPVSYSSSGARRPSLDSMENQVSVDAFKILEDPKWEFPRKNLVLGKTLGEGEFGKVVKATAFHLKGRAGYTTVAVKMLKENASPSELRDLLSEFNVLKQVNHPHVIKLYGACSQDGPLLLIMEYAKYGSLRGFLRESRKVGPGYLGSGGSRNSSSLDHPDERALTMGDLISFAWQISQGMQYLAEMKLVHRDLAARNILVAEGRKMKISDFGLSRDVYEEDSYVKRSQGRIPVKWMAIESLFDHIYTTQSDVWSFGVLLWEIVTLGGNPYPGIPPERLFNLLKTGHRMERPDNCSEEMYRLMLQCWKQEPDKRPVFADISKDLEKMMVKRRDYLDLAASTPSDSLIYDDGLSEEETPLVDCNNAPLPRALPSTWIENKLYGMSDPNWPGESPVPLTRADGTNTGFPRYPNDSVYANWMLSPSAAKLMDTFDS
# Chain of PCTK3 (Q07002 whole entry): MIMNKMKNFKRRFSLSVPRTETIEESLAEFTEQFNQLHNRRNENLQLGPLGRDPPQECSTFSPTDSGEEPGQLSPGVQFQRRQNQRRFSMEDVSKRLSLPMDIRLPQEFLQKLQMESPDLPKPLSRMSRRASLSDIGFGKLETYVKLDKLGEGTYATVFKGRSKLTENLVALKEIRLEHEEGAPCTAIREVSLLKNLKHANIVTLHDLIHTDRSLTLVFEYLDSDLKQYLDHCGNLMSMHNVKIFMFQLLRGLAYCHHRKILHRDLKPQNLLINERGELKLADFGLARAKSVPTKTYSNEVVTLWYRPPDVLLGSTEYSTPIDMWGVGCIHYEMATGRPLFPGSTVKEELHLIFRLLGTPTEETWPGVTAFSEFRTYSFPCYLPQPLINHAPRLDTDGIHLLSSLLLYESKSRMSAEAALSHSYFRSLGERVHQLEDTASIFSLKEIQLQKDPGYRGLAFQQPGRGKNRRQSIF
smiles,measurement,setting,value
CN1CCN(c2ccc(Nc3nc(Oc4ccc(NC(=O)CCl)cc4)c4cc[nH]c4n3)cc2)CC1 [CPT1-70-1],remaining activity at 1 µM,RET(V804M); [1],2.2%
same,remaining activity at 1 µM,RSK1; [2],72%
same,remaining activity at 1 µM,RSK1; [3],100%
same,remaining activity at 1 µM,PRKX; [1],100%
same,remaining activity at 1 µM,RPS6KA4; [2],100%
same,remaining activity at 1 µM,RPS6KA4; [3],79%
same,remaining activity at 1 µM,RET(V804L); [1],11%
same,remaining activity at 1 µM,PDGFRB; [1],6.9%
same,remaining activity at 1 µM,YSK1; [1],89%
same,remaining activity at 1 µM,PIK3CA(H1047Y); [1],100%
same,remaining activity at 1 µM,NEK11; [1],95%
same,remaining activity at 1 µM,YANK2; [1],100%
same,remaining activity at 1 µM,NEK2; [1],100%
same,remaining activity at 1 µM,RIOK3; [1],53%
same,remaining activity at 1 µM,TRPM6; [1],48%
same,remaining activity at 1 µM,TNK1; [1],0.95%
same,remaining activity at 1 µM,ROCK2; [1],26%
same,remaining activity at 1 µM,PIK3CA(E545K); [1],84%
same,remaining activity at 1 µM,STK39; [1],85%
same,remaining activity at 1 µM,RAF1; [1],86%
same,remaining activity at 1 µM,TAOK1; [1],96%
same,remaining activity at 1 µM,TIE2; [1],100%
same,remaining activity at 1 µM,NEK5; [1],82%
same,remaining activity at 1 µM,STK36; [1],78%
same,remaining activity at 1 µM,PIK3CA(E542K); [1],100%
same,remaining activity at 1 µM,PCTK3; [1],97%
same,remaining activity at 1 µM,TAOK3; [1],71%
same,remaining activity at 1 µM,TNK2; [1],100%
same,remaining activity at 1 µM,PRKD3; [1],54%
same,remaining activity at 1 µM,TIE1; [1],39%
same,remaining activity at 1 µM,TEC; [1],10%
CCN1CCN(Cc2ccc(NC(=O)c3ccc(C)c(CCc4cnc5[nH]ccc5c4OC)c3)cc2C(F)(F)F)CC1 [HYJ-2-002-1],remaining activity at 1 µM,RET(V804M); [4],1%
same,remaining activity at 1 µM,RSK1; [5],96%
same,remaining activity at 1 µM,RSK1; [6],61%
same,remaining activity at 1 µM,PRKX; [4],78%
same,remaining activity at 1 µM,RPS6KA4; [5],99%
same,remaining activity at 1 µM,RPS6KA4; [6],100%
same,remaining activity at 1 µM,RET(V804L); [4],1.4%
same,remaining activity at 1 µM,PDGFRB; [4],0%
same,remaining activity at 1 µM,YSK1; [4],87%
same,remaining activity at 1 µM,PIK3CA(H1047Y); [4],100%
same,remaining activity at 1 µM,NEK11; [4],37%
same,remaining activity at 1 µM,YANK2; [4],100%
same,remaining activity at 1 µM,NEK2; [4],95%
same,remaining activity at 1 µM,RIOK3; [4],100%
same,remaining activity at 1 µM,TRPM6; [4],100%
same,remaining activity at 1 µM,TNK1; [4],15%
same,remaining activity at 1 µM,ROCK2; [4],94%
same,remaining activity at 1 µM,PIK3CA(E545K); [4],100%
same,remaining activity at 1 µM,STK39; [4],94%
same,remaining activity at 1 µM,RAF1; [4],8.9%
same,remaining activity at 1 µM,TAOK1; [4],34%
same,remaining activity at 1 µM,TIE2; [4],0.15%
same,remaining activity at 1 µM,NEK5; [4],21%
same,remaining activity at 1 µM,STK36; [4],2.2%
same,remaining activity at 1 µM,PIK3CA(E542K); [4],100%
same,remaining activity at 1 µM,PCTK3; [4],100%
same,remaining activity at 1 µM,TAOK3; [4],0.45%
same,remaining activity at 1 µM,TNK2; [4],4.1%
same,remaining activity at 1 µM,PRKD3; [4],67%
same,remaining activity at 1 µM,TIE1; [4],4.3%
same,remaining activity at 1 µM,TEC; [4],3.8%
